# Assay results as given in ChEMBL document CHEMBL1201862, “PubChem BioAssay data set” (2004).
# Activity calls are given as the source filed them.
# Columns and labels:
# [1] = system: Staphylococcus aureus; experiment: Inhibitors of Bacterial Quorum Sensing Structure Activity Relationship (SAR) Analysis: Dose Response Assay. [Related pubchem assays: 700, 527 ]; assay type: functional, organism-based
# [2] = NIH-3T3 fibroblast cytotoxicity, dose response, cytotoxicity control, cell-based, fluorescence, Alamar Blue, secondary assay (AID 2327); assay type: functional;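 note: NIH-3T3 mouse fibroblasts cultured with fluconazole at 8 µg/mL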
# [3] = fluconazole-exposed Candida albicans growth modulators – fluorescence, retest, confirmation (AID 2467); assay type: functional, cell-based
# [4] = target: FAD-linked sulfhydryl oxidase ALR (Homo sapiens, UniProt P55789); experiment: ALR-catalysed DTT oxidation blockers – biochemical, H2O2 detection, luminescence, cherry-pick, dose response (AID 493248)
# [5] = target: ATP-dependent molecular chaperone HSP82 (Candida albicans (strain WO-1) (Yeast), UniProt C4YTQ8); experiment: steroid-induced GRE reporter decrease in yeast – S. cerevisiae, luminescence, Hsp90 inhibitor project, dose response (AID 2400); assay type: functional, cell-based;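 note: beta-galactosidase luminescence from glucocorticoid response element reporter as proxy for Hsp90 function; inhibitor potency where signal loss means Hsp90 inhibition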
# [6] = target: T1, Serine/threonine-protein phosphatase (Candida dubliniensis (strain CD36 / CBS 7987 / NCPF 3949 / NRRLY-17841) (Yeast), UniProt B9W6M3); experiment: blockers of CaCl2-induced CDRE-lacZ signaling – S. cerevisiae, luminescence, secondary, dose response (AID 2388); assay type: functional, cell-based;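 note: yeast reporter cells carrying a calcineurin-responsive lacZ construct stimulated with calcium chloride; luminescent beta-galactosidase reporter signal in whole cells rather than isolated phosphatase activity; potency for inhibition where a drop in reporter signal means calcineurin blockade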
# T1 sequence (B9W6M3 whole entry): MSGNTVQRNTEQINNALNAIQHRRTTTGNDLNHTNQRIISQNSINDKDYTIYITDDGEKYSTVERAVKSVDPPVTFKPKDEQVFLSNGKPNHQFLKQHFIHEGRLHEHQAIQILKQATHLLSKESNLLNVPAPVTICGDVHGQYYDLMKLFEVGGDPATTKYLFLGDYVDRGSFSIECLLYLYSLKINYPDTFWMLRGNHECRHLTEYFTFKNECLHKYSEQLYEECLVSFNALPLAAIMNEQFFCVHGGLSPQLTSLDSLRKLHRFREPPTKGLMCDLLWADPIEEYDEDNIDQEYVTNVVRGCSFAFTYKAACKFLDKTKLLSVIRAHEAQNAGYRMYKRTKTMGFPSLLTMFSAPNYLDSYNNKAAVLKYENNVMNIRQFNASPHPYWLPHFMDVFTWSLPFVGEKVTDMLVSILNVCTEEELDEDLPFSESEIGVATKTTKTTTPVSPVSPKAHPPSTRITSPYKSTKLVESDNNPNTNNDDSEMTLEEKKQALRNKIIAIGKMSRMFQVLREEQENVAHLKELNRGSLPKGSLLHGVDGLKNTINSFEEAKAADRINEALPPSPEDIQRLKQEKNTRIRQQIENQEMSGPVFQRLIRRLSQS
# [7] = viability loss in HeLa cells – cytotoxicity control for MgcRacGAP inhibitor project, dose response (AID 624300); assay type: functional
# [8] = target: Intestinal-type alkaline phosphatase (Homo sapiens, UniProt P09923); experiment: Dose Response confirmation of uHTS hits from a small molecule inhibitors of human intestinal alkaline phosphatase via a luminescent assay. [Related pubchem assays (depositor defined):AID2544, AID2574]; assay type: functional
# [9] = blockers of HIV-1 ZM109 envelope-driven cell-cell fusion – HeLa effector, CEM target cells, luciferase, cherry-pick, dose response (AID 652058); assay type: functional, cell-based;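 note: luciferase signal from HIV-1 Env mediated cell-cell fusion of effector and target cells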
# [10] = HEK-293T cell viability reduction – luminescence, B-cell screen hits, cytotoxicity control for BCR NF-kB inhibitor project, dose response (AID 489021); assay type: functional, cell-based;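 note: HEK-293T cells carrying an NF-kB luciferase reporter; cells exposed to compound for about 14 hours before viability readout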
# [11] = blockers of HIV-1 envelope-mediated cell-cell fusion – cherry-pick, dose response (AID 652057); assay type: functional, cell-based
# [12] = HIV-1 AD8 envelope cell-cell fusion blockers – cherry-pick, dose response (AID 652062); assay type: functional, cell-based;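 note: luciferase signal from cell-cell fusion driven by HIV-1 clade B AD8 Env; potency is for inhibitors of fusion seen as a drop in luminescence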
# [13] = Luminescence Cell-Based Dose Response HTS to Identify Inhibitors of 5'UTR Stem-Loop Driven Prion Protein mRNA Translation in H4 Neuroglioblastoma Cells. [Related pubchem assays: 1827 (Project Summary), 1813 (Primary HTS)]; assay type: functional
# [14] = alpha-synuclein stem-loop luciferase translation blockers – H4 neuroglioma cells, luminescence, confirmation (AID 1988); assay type: functional, cell-based
# [15] = off-target signal loss in HeLa-CEM21 co-culture – HeLa F-luc CTL cells, cherry-picked, counter-screen for HIV-1 Env fusion inhibitor project, dose response (AID 652040); assay type: functional, cell-based;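 note: potency for signal decrease marking cytotoxic or nonspecific inhibition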
# [16] = target: Glucose-6-phosphate 1-dehydrogenase (Homo sapiens, UniProt P11413); experiment: inhibition of Homo sapiens G6PD, dose series – biochemical, fluorescence, selectivity assay for P. falciparum G6PD inhibitor project, dose response (AID 504792); assay type: functional
# [17] = target: T2, ORF 73 (Human herpesvirus 8, UniProt O40947); experiment: KSHV LANA DNA-binding disruption – biochemical, fluorescence polarization, cherry-picked samples, dose response (AID 504725); parameters: species or system Human gammaherpesvirus 8;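 note: fluorescence polarization of a labeled DNA duplex reporting LANA DNA binding; potency is for inhibitors that block LANA binding to the DNA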
# T2 sequence (O40947 whole entry): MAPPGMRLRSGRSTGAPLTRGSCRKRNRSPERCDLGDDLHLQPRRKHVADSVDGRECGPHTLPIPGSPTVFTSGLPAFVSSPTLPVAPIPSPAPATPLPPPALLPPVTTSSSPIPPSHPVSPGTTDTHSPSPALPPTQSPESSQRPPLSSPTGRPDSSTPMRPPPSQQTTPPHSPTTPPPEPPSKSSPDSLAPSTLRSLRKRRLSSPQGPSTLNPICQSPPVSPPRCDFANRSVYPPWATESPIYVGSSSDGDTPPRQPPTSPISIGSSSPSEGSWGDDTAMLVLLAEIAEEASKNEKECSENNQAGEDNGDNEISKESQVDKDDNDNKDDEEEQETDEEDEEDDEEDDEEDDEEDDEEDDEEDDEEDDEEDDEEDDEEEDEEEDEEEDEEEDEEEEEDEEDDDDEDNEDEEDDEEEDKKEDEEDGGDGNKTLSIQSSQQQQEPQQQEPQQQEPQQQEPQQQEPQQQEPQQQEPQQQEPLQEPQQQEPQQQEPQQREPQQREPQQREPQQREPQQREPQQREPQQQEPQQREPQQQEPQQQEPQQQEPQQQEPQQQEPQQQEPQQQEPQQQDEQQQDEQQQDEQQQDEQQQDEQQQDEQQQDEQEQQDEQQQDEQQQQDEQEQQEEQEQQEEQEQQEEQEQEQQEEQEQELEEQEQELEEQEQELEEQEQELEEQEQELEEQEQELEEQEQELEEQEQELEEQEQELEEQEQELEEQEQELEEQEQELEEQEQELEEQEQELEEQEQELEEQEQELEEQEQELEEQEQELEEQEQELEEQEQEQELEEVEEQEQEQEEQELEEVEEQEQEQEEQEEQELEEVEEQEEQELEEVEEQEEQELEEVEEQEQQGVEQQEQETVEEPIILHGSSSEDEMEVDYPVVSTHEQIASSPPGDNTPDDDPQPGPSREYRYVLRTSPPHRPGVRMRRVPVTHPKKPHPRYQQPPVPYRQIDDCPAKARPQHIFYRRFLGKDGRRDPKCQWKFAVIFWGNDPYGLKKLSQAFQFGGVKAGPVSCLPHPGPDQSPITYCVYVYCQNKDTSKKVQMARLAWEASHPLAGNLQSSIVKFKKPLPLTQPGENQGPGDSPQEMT
# [18] = system: HeLa; experiment: viability loss in HeLa cells – cell-based, 24 h, cherry-picked samples, cytotoxicity control, dose response (AID 504726); assay type: functional; settings: Homo sapiens;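 note: potency for cytotoxicity as loss of luminescence signal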
# [19] = target: C-C chemokine receptor type 6 (Homo sapiens, UniProt P51684); experiment: antagonism of CCR6 beta-arrestin recruitment – cell-based, luminescent beta-arrestin readout, dose response (AID 504728); assay type: functional
# [20] = target: Beta-galactosidase (Escherichia coli, UniProt Q8VNN2); experiment: detection-enzyme interference by beta-gal modulators – biochemical, E. coli enzyme, set 3, artefact control for CCR6 antagonist project, dose response (AID 504712); assay type: functional
# [21] = target: Nonstructural protein 1 (Influenza A virus, UniProt Q194T2); assay type: functional, Influenza A virus (A/California/07/2009(H1N1))
# [22] = system: Vero; experiment: cells; assay type: functional; settings: Chlorocebus sabaeus
# Chain of Glucose-6-phosphate 1-dehydrogenase (P11413 whole entry): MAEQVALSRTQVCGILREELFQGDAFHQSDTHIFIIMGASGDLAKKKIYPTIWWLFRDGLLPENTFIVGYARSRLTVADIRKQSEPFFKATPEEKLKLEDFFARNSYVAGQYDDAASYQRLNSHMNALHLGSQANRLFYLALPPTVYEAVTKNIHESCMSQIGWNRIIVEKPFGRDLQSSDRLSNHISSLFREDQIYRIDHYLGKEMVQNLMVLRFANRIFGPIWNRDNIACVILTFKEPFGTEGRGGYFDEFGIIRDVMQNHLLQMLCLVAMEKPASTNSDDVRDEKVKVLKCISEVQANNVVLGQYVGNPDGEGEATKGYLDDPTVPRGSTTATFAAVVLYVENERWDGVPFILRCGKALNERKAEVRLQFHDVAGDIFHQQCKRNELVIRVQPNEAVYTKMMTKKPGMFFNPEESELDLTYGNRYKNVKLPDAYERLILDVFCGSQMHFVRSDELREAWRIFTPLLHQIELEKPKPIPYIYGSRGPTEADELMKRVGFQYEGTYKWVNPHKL
# Chain of Intestinal-type alkaline phosphatase (P09923 whole entry, the tested form may be a part): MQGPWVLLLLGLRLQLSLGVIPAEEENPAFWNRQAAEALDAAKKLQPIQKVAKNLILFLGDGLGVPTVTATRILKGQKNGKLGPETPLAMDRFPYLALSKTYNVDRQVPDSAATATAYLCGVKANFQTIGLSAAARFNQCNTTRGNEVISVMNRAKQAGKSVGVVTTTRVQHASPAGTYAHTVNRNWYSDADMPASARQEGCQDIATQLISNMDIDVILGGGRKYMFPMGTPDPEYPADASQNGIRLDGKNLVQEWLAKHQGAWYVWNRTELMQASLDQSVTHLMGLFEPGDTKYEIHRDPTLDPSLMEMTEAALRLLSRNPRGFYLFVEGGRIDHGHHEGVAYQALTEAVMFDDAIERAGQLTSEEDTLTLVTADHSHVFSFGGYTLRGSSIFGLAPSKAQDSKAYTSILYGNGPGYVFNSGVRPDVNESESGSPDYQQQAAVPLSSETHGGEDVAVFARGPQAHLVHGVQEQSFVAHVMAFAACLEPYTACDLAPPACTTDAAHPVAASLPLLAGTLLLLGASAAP
# Chain of Beta-galactosidase (Q8VNN2 whole entry): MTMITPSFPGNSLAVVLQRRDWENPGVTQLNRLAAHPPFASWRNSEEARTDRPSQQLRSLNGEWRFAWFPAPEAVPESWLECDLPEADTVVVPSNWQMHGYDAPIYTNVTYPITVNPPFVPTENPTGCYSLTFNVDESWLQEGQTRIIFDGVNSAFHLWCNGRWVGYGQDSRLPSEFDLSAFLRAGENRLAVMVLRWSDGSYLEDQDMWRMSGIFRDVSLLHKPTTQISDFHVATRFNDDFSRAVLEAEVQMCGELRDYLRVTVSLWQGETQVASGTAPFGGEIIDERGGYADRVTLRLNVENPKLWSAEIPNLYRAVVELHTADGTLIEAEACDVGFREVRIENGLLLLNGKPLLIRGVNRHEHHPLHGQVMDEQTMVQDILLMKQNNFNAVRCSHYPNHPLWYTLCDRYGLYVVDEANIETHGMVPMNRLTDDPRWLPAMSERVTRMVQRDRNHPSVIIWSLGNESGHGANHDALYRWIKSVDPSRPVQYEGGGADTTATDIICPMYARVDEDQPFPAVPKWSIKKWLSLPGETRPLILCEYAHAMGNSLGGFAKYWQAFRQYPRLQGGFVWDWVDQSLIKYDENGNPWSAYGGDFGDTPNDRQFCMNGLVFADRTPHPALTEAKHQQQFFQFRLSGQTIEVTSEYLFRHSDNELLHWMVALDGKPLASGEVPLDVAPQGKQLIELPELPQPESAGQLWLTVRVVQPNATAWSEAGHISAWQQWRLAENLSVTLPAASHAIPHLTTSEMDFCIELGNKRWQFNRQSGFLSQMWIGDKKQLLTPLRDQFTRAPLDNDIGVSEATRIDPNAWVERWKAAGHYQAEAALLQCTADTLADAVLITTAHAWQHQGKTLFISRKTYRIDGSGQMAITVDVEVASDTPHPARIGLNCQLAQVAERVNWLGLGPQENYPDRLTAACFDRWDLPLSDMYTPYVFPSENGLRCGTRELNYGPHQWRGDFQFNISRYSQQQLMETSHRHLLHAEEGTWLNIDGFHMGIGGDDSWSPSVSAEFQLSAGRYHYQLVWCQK
# Chain of FAD-linked sulfhydryl oxidase ALR (P55789 whole entry): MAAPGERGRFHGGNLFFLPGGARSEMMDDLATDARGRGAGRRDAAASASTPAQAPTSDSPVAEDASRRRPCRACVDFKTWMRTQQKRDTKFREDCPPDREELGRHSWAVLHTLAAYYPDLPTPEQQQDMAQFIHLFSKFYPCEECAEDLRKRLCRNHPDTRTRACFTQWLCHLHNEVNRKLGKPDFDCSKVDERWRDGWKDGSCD
# Chain of C-C chemokine receptor type 6 (P51684 whole entry): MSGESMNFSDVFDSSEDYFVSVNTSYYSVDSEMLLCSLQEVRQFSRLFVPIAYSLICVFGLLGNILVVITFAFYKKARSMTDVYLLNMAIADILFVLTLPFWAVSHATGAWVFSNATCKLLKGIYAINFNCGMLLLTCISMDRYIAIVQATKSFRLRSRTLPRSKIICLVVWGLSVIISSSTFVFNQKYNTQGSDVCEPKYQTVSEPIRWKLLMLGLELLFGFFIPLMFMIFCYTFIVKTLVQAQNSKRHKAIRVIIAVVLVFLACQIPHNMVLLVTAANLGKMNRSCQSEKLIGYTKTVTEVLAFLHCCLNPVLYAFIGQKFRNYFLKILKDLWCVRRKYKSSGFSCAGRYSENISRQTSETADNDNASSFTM
# Chain of Nonstructural protein 1 (Q194T2 whole entry): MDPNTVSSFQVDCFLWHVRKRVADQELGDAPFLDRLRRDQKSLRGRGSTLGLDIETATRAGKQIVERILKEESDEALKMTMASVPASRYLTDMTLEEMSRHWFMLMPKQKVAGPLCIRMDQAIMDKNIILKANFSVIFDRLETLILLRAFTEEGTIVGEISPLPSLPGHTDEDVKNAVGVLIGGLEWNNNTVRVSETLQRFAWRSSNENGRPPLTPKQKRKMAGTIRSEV
# Chain of ATP-dependent molecular chaperone HSP82 (C4YTQ8 whole entry): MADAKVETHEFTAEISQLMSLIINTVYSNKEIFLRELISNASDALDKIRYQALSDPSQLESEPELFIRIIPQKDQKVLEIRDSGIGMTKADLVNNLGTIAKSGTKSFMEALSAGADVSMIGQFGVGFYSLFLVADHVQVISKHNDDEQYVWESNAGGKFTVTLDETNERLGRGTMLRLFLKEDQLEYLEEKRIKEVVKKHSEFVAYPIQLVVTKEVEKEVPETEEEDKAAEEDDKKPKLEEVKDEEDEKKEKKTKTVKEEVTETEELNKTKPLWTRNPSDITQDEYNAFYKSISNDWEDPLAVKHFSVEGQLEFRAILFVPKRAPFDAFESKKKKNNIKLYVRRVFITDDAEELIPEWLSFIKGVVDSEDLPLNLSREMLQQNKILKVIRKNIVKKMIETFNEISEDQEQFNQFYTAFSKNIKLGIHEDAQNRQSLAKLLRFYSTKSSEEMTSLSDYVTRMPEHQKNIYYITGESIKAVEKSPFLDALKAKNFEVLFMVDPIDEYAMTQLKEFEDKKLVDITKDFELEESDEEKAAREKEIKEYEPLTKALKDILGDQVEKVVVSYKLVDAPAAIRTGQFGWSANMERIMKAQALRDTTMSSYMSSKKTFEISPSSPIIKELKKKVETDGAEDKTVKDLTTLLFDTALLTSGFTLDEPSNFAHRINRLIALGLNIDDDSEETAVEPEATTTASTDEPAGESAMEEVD
smiles,measurement,setting,value
O=C1CSC(NC(=O)N2c3ccccc3Sc3ccccc32)=N1,IC50,[1],0.278 µM (active)
same,EC50,[2],> 150 µM (inactive)
same,EC50,[3],2.32 µM (active)
same,AC50,[4],0.335 µM (active)
same,EC50,[5],> 150 µM (inactive)
same,EC50,[6],> 180 µM (inactive)
CC(=O)Nc1cccc(-c2csc(Nc3ccccn3)n2)c1,CC50,[7],94.2 µM (active)
same,IC50,[8],> 100 µM (inactive)
OCCN1CCN(C(=S)c2ccc(-c3ccccc3)cc2)CC1,AC50,[9],3.74 µM (active)
same,IC50,[10],> 80 µM (inactive)
same,AC50,[11],4.04 µM (active)
same,AC50,[12],1.64 µM (active)
same,EC50,[13],12.1 µM (active)
same,EC50,[14],9.34 µM (active)
same,AC50,[15],5.39 µM (active)
same,IC50,[16],> 80 µM (inactive)
COC(=O)C(NC(=O)C(C)NC(=O)OCc1ccccc1)C(C)C (stereo not drawn),AC50,[17],70.8 µM (active)
same,AC50,[18],68.2 µM (active)
COC(=O)c1ccccc1/N=C1\C=C(NS(=O)(=O)c2cccs2)c2ccccc2C1=O,IC50,[19],> 66.6 µM (inactive)
same,IC50,[20],> 66.6 µM (inactive)
same,IC50,[21],4.03 µM (active)
same,CC50,[22],13.6 µM (active)
same,IC50,[16],> 80 µM (inactive)
